We go through eight compounds from US20260355323A1, “CEREBLON-RECRUITING BCL-XL/BCL-2 DUAL DEGRADERS” (University of Florida Research Foundation, Incorporated, priority 2022, published 2026).

Test [1] concerns MOLT-4 acute lymphoblastic leukemia cells. The test is described as follows: Cell viability, tetrazolium-based MTS assay, MOLT-4. Conditions: Homo sapiens, MOLT-4, 48 h; read-out: Anti-Cancer Activity EC50 (48 hr), MOLT-4. As for the experimental part:
(§1) Acute lymphoblastic leukemia cells (MOLT-4 and RS4;11) were incubated with increasing concentrations of Bcl-xL/Bcl-2 degraders for 48 h. Cell viability was measured by tetrazolium-based MTS assay.

In test [2] the test system is WI-38 irradiation-induced senescent cells (IR-SC). The test is described as follows: Senolytic activity, cell viability (PrestoBlue HS), WI-38 IR-SC. It counts as cell-based. Conditions: Homo sapiens, 72 h. As for the experimental part:
(§2) To induce senescence in WI-38 and HUVEC, cells were subjected to x-ray irradiation at 20 Gray using X-RAD 320 biological irradiator. Following between 10 to 15 days after irradiation, senescence was induced in cells, and irradiation-induced senescent cells (IR-SC) were then used for cell viability and Western blotting tests.
(§3) WI-38 and HUVEC cells were incubated with increasing concentrations of degraders for 72 h. Cell viability was measured using PrestoBlue HS cell viability reagent.

Another test has as its system WI-38 NC. The test is described as follows: Senolytic activity, cell viability (PrestoBlue HS), WI-38 NC. Format: cell-based. Conditions: Homo sapiens, 72 h. As for the experimental part: as §3
In test [3] the test system is RS4;11 acute lymphoblastic leukemia cells. The test is described as follows: Cell viability, tetrazolium-based MTS assay, RS4;11. The conditions noted are these: Homo sapiens, RS4;11, 48 h, read-out: Anti-Cancer Activity EC50 (48 hr), RS4. As for the experimental part:
as §1
Background: Formazan colour is commonly taken as a measure of viable cells.

Test [4] concerns the target T1, Bcl-xL (Homo sapiens, UniProt Q07817).
T1 construct: immunoblot after 16 h degrader treatment
The test is described as follows: Bcl-xL protein degradation in Hela cells (immunoblot). Format: cell-based. Conditions: 16 h. As for the experimental part: (§4) Jurkat and Hela cells were incubated with increasing concentrations of test compounds for 16 h. The cells were harvested and lysed in RIPA lysis buffer supplemented with protease and phosphatase inhibitor cocktails. An equal amount of protein (20 μg/lane) was resolved on a pre-cast 4-20% SDS-PAGE gel. Proteins were subsequently transferred to NOVEX PVDF membranes by electrophoresis. The membranes were blocked in blocking buffer (5% non-fat dry milk in TBS-T), and incubated with primary antibodies (at optimized concentrations) overnight at 4° C. After three washings in TBS-T, the membranes were incubated with an appropriate FIRP-conjugated secondary antibody for 1 h at room temperature. After extensive washing for three times, the proteins of interest were detected with ECL western blotting detection reagents and recorded with autoradiography (Pierce Biotech, Rockford, IL, USA). The primary antibodies for Bcl-xL (Cat #2762), Bcl-2 (Cat #2872), Bcl-w (Cat #2724) and β-actin (Cat #4970) were purchased from Cell Signaling Technology. The relative band intensity was measured using ImageJ software and normalized to β-actin.

The target of test [5] is T1, Bcl-xL. The test is described as follows: Bcl-xL protein degradation in Jurkat cells (immunoblot). It counts as cell-based. The conditions noted are these: 16 h. As for the experimental part:
as §4
A general note: Immunoblotting shows a protein as a band on a membrane.

Test [6] relates to HUVEC irradiation-induced senescent cells (IR-SC). The test is described as follows: Senolytic activity, cell viability (PrestoBlue HS), HUVEC IR-SC. Format: cell-based. The conditions noted are these: Homo sapiens, 72 h. As for the experimental part: as §2, §3

Each structure is given as a SMILES string.

T1 sequence (Q07817 whole entry): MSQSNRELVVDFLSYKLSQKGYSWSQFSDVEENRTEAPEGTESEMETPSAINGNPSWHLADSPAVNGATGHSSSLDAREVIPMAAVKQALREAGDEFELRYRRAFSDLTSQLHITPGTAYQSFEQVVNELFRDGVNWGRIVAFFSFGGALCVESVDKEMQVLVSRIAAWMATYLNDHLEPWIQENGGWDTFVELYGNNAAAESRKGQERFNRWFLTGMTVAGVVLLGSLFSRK
T1 sequence (Q96SW2 whole entry partner): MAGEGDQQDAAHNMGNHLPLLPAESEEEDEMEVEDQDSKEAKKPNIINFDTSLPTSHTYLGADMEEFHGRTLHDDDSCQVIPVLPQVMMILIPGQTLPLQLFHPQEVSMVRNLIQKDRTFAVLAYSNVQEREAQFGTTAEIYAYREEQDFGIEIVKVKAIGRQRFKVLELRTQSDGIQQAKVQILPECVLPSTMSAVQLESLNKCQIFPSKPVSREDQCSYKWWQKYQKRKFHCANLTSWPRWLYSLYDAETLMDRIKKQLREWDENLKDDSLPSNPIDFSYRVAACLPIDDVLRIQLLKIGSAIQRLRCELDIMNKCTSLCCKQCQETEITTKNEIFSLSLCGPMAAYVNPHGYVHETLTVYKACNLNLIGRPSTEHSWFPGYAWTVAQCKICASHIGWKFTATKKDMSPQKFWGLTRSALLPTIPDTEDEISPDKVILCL

What is called EC50 is the concentration giving half of the maximal effect. As to `C[C@@]1(CN2CCN(C(=O)CN3CCN(c4ccc5c(c4)CN(C4CCC(=O)NC4=O)C5=O)CC3)CC2)CCC(c2ccc(Cl)cc2)=C(CN2CCN(c3ccc(C(=O)NS(=O)(=O)c4ccc(N[C@H](CCN5CCCOCC5)CSc5ccccc5)c(S(=O)(=O)C(F)(F)F)c4)cc3)CC2)C1` (stereo partly drawn) [Compound 1, N-((4-(((R)-4-(1,4-oxazepan-4-yl)-1-(phenylthio)butan-2-yl)amino)-3-((trifluoromethyl)sulfonyl)phenyl)sulfonyl)-4-(4-(((4R)-4′-chloro-4-((4-(2-(4-(2-(2,6-dioxopiperidin-3-yl)-1-oxoisoindolin-5-yl)piperazin-1-yl)acetyl)piperazin-1-yl)methyl)-4-methyl-3,4,5,6-tetrahydro-[1,1′-biphenyl]-2-yl)methyl)piperazin-1-yl)benzamide], the 50% effective concentration (EC50) is less than 1 nM in test [1], 1 to 10 nM in test [2], more than 10000 nM with WI-38 NC and less than 1 nM in test [3]. For the same compound, the “degradation of Bcl-xL” value at Bcl-xL [4] and on Bcl-xL [5] was “degrade Bcl-xL in a dose-dependent manner” throughout.
With `C[C@@]1(CN2CCN(C(=O)CN3CCN(CC#Cc4ccc5c(c4)CN(C4CCC(=O)NC4=O)C5=O)CC3)CC2)CCC(c2ccc(Cl)cc2)=C(CN2CCN(c3ccc(C(=O)NS(=O)(=O)c4ccc(N[C@H](CCN5CCCOCC5)CSc5ccccc5)c(S(=O)(=O)C(F)(F)F)c4)cc3)CC2)C1` (stereo partly drawn) [Compound 4, N-((4-(((R)-4-(1,4-oxazepan-4-yl)-1-(phenylthio)butan-2-yl)amino)-3-((trifluoromethyl)sulfonyl)phenyl)sulfonyl)-4-(4-(((4R)-4′-chloro-4-((4-(2-(4-(3-(2-(2,6-dioxopiperidin-3-yl)-1-oxoisoindolin-5-yl)prop-2-yn-1-yl)piperazin-1-yl)acetyl)piperazin-1-yl)methyl)-4-methyl-3,4,5,6-tetrahydro-[1,1′-biphenyl]-2-yl)methyl)piperazin-1-yl)benzamide], the EC50 in test [1] was less than 1 nM; in test [2], 1 to 10 nM; in the test with WI-38 NC, more than 10000 nM; in test [3] it was less than 1 nM. Also, the “degradation of Bcl-xL” value at Bcl-xL [4] and at Bcl-xL [5] was “degrade Bcl-xL in a dose-dependent manner” throughout.
As to `C[C@@]1(CN2CCC(CN3CCC(CN4CCN(c5ccc6c(c5)CN(C5CCC(=O)NC5=O)C6=O)CC4)CC3)CC2)CCC(c2ccc(Cl)cc2)=C(CN2CCN(c3ccc(C(=O)NS(=O)(=O)c4ccc(N[C@H](CCN5CCCOCC5)CSc5ccccc5)c(S(=O)(=O)C(F)(F)F)c4)cc3)CC2)C1` (stereo partly drawn) [Compound 12, N-((4-(((R)-4-(1,4-oxazepan-4-yl)-1-(phenylthio)butan-2-yl)amino)-3-((trifluoromethyl)sulfonyl)phenyl)sulfonyl)-4-(4-(((4R)-4′-chloro-4-((4-((4-((4-(2-(2,6-dioxopiperidin-3-yl)-1-oxoisoindolin-5-yl)piperazin-1-yl)methyl)piperidin-1-yl)methyl)piperidin-1-yl)methyl)-4-methyl-3,4,5,6-tetrahydro-[1,1′-biphenyl]-2-yl)methyl)piperazin-1-yl)benzamide], the concentration giving a half-maximal response (EC50) was less than 1 nM in test [1], 10 to 100 nM in test [2], more than 10000 nM in the test with WI-38 NC and less than 1 nM in test [3]. Moreover, the “degradation of Bcl-xL” value at Bcl-xL [4] and on Bcl-xL [5] was “degrade Bcl-xL in a dose-dependent manner” in each case.
With `CC1(CN2CCN(C(=O)CN3CCN(C(=O)COCCNc4cccc5c4C(=O)N(C4CCC(=O)NC4=O)C5=O)CC3)CC2)CCC(c2ccc(Cl)cc2)=C(CN2CCN(c3ccc(C(=O)NS(=O)(=O)c4ccc(N[C@H](CCN5CCOCC5)CSc5ccccc5)c(S(=O)(=O)C(F)(F)F)c4)cc3)CC2)C1` (stereo partly drawn) [Compound 15, 4-(4-((4′-chloro-4-((4-(2-(4-(2-(2-((2-(2,6-dioxopiperidin-3-yl)-1,3-dioxoisoindolin-4-yl)amino)ethoxy)acetyl)piperazin-1-yl)acetyl)piperazin-1-yl)methyl)-4-methyl-3,4,5,6-tetrahydro-[1,1′-biphenyl]-2-yl)methyl)piperazin-1-yl)-N-((4-(((R)-4-morpholino-1-30 (phenylthio)butan-2-yl)amino)-3-((trifluoromethyl)sulfonyl)phenyl)sulfonyl)benzamide], the EC50 in test [1] is less than 1 nM; in test [2] it was 10000 to 100000 nM; in the test on WI-38 NC it was more than 10000 nM; in test [3] it was less than 1 nM.
Turning to `CC1(CN2CCN(C(=O)CN3CCN(C(=O)CNc4cccc5c4C(=O)N(C4CCC(=O)NC4=O)C5=O)CC3)CC2)CCC(c2ccc(Cl)cc2)=C(CN2CCN(c3ccc(C(=O)NS(=O)(=O)c4ccc(N[C@H](CCN5CCOCC5)CSc5ccccc5)c(S(=O)(=O)C(F)(F)F)c4)cc3)CC2)C1` (stereo partly drawn) [Compound 16, 4-(4-((4′-chloro-4-((4-(2-(4-((2-(2,6-dioxopiperidin-3-yl)-1,3-dioxoisoindolin-4-yl)glycyl)piperazin-1-yl)acetyl)piperazin-1-yl)methyl)-4-methyl-3,4,5,6-tetrahydro-[1,1′-biphenyl]-2-yl)methyl)piperazin-1-yl)-N-((4-(((R)-4-morpholino-1-(phenylthio)butan-2-yl)amino)-3-((trifluoromethyl)sulfonyl)phenyl)sulfonyl)benzamide], the EC50 is less than 1 nM in test [1], 10 to 100 nM in test [2], more than 10000 nM in the test on WI-38 NC and less than 1 nM in test [3].
In the case of `CC1(CN2CCN(C(=O)CN3CCN(C(=O)COc4cccc5c4C(=O)N(C4CCC(=O)NC4=O)C5=O)CC3)CC2)CCC(c2ccc(Cl)cc2)=C(CN2CCN(c3ccc(C(=O)NS(=O)(=O)c4ccc(N[C@H](CCN5CCOCC5)CSc5ccccc5)c(S(=O)(=O)C(F)(F)F)c4)cc3)CC2)C1` (stereo partly drawn) [Compound 18, 4-(4-((4′-chloro-4-((4-(2-(4-(2-((2-(2,6-dioxopiperidin-3-yl)-1,3-dioxoisoindolin-4-yl)oxy)acetyl)piperazin-1-yl)acetyl)piperazin-1-yl)methyl)-4-methyl-3,4,5,6-tetrahydro-[1,1′-biphenyl]-2-yl)methyl)piperazin-1-yl)-N-((4-(((R)-4-morpholino-1-(phenylthio)butan-2-yl)amino)-3-((trifluoromethyl)sulfonyl)phenyl)sulfonyl)benzamide], the half-maximal effective concentration (EC50) in test [1] was less than 1 nM; in test [2], 10 to 100 nM; in the test on WI-38 NC, more than 10000 nM; in test [3], less than 1 nM.
With `C[C@@]1(CN2CCN(c3ccc4c(c3)C(=O)N(C3CCC(=O)NC3=O)C4)CC2)CCC(c2ccc(Cl)cc2)=C(CN2CCN(c3ccc(C(=O)NS(=O)(=O)c4ccc(N[C@H](CCN5CCCOCC5)CSc5ccccc5)c(S(=O)(=O)C(F)(F)F)c4)cc3)CC2)C1` (stereo partly drawn) [Compound 133, N-((4-(((R)-4-(1,4-oxazepan-4-yl)-1-(phenylthio)butan-2-yl)amino)-3-((trifluoromethyl)sulfonyl)phenyl)sulfonyl)-4-(4-(((4R)-4′-chloro-4-((4-(2-(2,6-dioxopiperidin-3-yl)-3-oxoisoindolin-5-yl)piperazin-1-yl)methyl)-4-methyl-3,4,5,6-tetrahydro-[1,1′-biphenyl]-2-yl)methyl)piperazin-1-yl)benzamide], the half-maximal effective concentration (EC50) in test [1] is less than 1 nM; in test [6] it was less than 1 nM; in test [2], 10 to 100 nM; in test [3], 1 to 10 nM.
Take `C[C@@]1(CN2CCC(CN3CCN(c4ccc(NC5CCC(=O)NC5=O)cc4F)CC3)CC2)CCC(c2ccc(Cl)cc2)=C(CN2CCN(c3ccc(C(=O)NS(=O)(=O)c4ccc(N[C@H](CCN5CCCOCC5)CSc5ccccc5)c(S(=O)(=O)C(F)(F)F)c4)cc3)CC2)C1` (stereo partly drawn) [Compound 141, N-((4-(((R)-4-(1,4-oxazepan-4-yl)-1-(phenylthio)butan-2-yl)amino)-3-((trifluoromethyl)sulfonyl)phenyl)sulfonyl)-4-(4-(((4R)-4′-chloro-4-((4-((4-(4-((2,6-dioxopiperidin-3-yl)amino)-2-fluorophenyl)piperazin-1-yl)methyl)piperidin-1-yl)methyl)-4-methyl-3,4,5,6-tetrahydro-[1,1′-biphenyl]-2-yl)methyl)piperazin-1-yl)benzamide]: the 50% effective concentration (EC50) in test [1] is 1 to 10 nM; in test [6] it was less than 1 nM; in test [2] it was 1 to 10 nM; with WI-38 NC, more than 10000 nM; in test [3], 1 to 10 nM.
